Test results reported in patent US20240368121A1, “ESTROGEN RECEPTOR DEGRADERS, PHARMACEUTICAL COMPOSITIONS THEREOF, AND THEIR THERAPEUTIC APPLICATIONS” (BioTheryX, Inc., priority 2021, published 2024).

How the values were obtained:
ERα = target: T1, ERα (Homo sapiens, UniProt P03372); experiment: Protein degradation assay: ERα in MCF-7 cells via western blot; assay type: cell-based; conditions: 6 h; for ERα Protein Degradation 1 nM: 1 nM compound; for ERα Protein Degradation 10 nM: 10 nM compound; for ERα Protein Degradation 100 nM: 100 nM compound
T1 construct: degrading an ERα in MCF-7 cells via a western blot; endogenous in cells; host or cells: MCF-7
T1 sequence (P03372 1-595): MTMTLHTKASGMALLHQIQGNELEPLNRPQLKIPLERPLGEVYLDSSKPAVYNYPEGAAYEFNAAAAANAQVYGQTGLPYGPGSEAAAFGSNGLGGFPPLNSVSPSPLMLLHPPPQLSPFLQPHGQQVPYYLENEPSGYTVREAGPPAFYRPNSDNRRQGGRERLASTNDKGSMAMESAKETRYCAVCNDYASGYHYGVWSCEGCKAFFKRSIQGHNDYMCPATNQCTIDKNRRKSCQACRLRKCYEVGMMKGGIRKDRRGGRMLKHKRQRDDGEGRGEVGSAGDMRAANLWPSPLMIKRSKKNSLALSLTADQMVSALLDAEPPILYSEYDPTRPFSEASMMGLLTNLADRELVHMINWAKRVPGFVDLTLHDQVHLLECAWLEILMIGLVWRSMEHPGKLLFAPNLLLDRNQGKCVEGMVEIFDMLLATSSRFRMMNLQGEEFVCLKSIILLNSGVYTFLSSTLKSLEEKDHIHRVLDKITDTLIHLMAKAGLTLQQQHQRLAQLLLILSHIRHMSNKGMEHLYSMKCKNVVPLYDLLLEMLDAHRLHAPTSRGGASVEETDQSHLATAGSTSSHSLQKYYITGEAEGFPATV
Method: A compound provided herein was assessed for its activity in degrading an ERα in MCF-7 cells via a western blot. The MCF7 cells were cultured at 37° C. in a humidified 5% C02 environment in MEM supplemented with 10% FBS with insulin. The cells were seeded in 12-well plates at a density of 300,000 cells per well in maintenance media. Cells were treated with the compound at predetermined concentrations (e.g., 1 nM, 10 nM, 100 nM, and 1 μM) for 6 h. The cells were then washed in PBS and the whole cells were lysed in a cell lysis buffer and incubated for 15 minutes on ice. Cell debris was removed by high-speed centrifugation and the cleared whole cell lysates were prepared for further analysis by a western blot. The whole cell protein extracts were separated on SDS-polyacrylamide gels, transferred to nitrocellulose membranes, and probed with primary antibodies, including anti-ERα antibody and GAPDH antibody for loading control. The membranes were subsequently washed and probed with secondary antibodies for chemiluminescence, followed by imaging on a BIORAD CHEMIDOC Imaging System. The results are summarized in Table 2, where “A” represents a percentage degradation value of no less than 50%; “B” represents a percentage degradation value of less than 50% and no less than 25%; “C” represents a percentage degradation value of less than 25% and no less than 10%; and “D” represents a percentage degradation value of less than 10%.

MCF7 cells = experiment: Cell viability assay ([…]-GLO, 6-day treatment); assay type: cell-based; conditions: Homo sapiens, MCF7, 144 h; MCF-7 cells, 6 days, CTG; read-out: Inhibition of Cancerous Cells IC50 MCF-7
Method: A compound provided herein was evaluated for its anticancer activity in MCF7 and T47D cells. MCF7 and T47D cells were cultured at 37° C. in a humidified 5% C02 environment in MEM or RPMI, supplemented with 10% FBS with insulin, respectively. The cells were plated in 384-well microplates at a density of 1,000 cells per well in their respective maintenance media. The cells were treated with the compound by a 10-point dose response curve for 6 days, during which, the medium and compound were refreshed once. After the 6-day treatment, the cell viability was assessed using […]-GLO (CTG) reagent. Luminescence was measured with a microplate reader.

Row | IC50 (MCF7 cells) [nM] | SMILES | ERα Protein Degradation 1 nM (ERα) | ERα Protein Degradation 10 nM (ERα) | ERα Protein Degradation 100 nM (ERα)
1 | – | CC1(Cc2ccc(OCCCCN3CCN(C(=O)COc4cccc5c4CN(C4CCC(=O)NC4=O)C5=O)CC3)cc2)C(c2ccc(O)cc2)=Nc2ccc(O)cc21 (centres unmarked) [Compound D1, 3-(4-(2-(4-(4-(4-((5-hydroxy-2-(4-hydroxyphenyl)-3-methyl-3H-indol-3-yl)-methyl)phenoxy)butyl)piperazin-1-yl)-2-oxoethoxy)-1-oxoisoindolin-2-yl)piperidine-2,6-dione] | D (a percentage degradation value of less than 10%) | D (a percentage degradation value of less than 10%) | D (a percentage degradation value of less than 10%)
2 | – | O=C1CCC(N2Cc3cc(C4CCN(CCCCOc5ccc([C@H]6c7ccc(O)cc7CC[C@H]6c6ccccc6)cc5)CC4)c(F)cc3C2=O)C(=O)N1 (stereo partly drawn) [Compound A13, 3-(6-Fluoro-5-(1-(4-(4-((1S,2R)-6-hydroxy-2-phenyl-1,2,3,4-tetrahydro-naphthalen-1-yl)phenoxy)butyl)piperidin-4-yl)-1-oxoisoindolin-2-yl)piperidine-2,6-dione] | C (a percentage degradation value of less than 25% and no less than 10%) | B (a percentage degradation value of less than 50% and no less than 25%) | C (a percentage degradation value of less than 25% and no less than 10%)
3 | 0.33 | Cc1c(-c2ccc(O)cc2)n(Cc2ccc(OCCCCN3CCN(C(=O)COc4ccc5c(C6CCC(=O)NC6=O)nn(C)c5c4)CC3)cc2)c2ccc(O)cc12 (centres unmarked) [Compound E14, 3-(6-(2-(4-(4-(4-((5-Hydroxy-2-(4-hydroxyphenyl)-3-methyl-1H-indol-1-yl)-methyl)phenoxy)butyl)piperazin-1-yl)-2-oxoethoxy)-1-methyl-1H-indazol-3-yl)piperidine-2,6-dione] | B (a percentage degradation value of less than 50% and no less than 25%) | B (a percentage degradation value of less than 50% and no less than 25%) | D (a percentage degradation value of less than 10%)
4 | 0.22 | Cc1c(-c2ccc(O)cc2)n(Cc2ccc(OCCCCN3CCN(c4cc5c(s4)CN(C4CCC(=O)NC4=O)C5=O)CC3)cc2)c2ccc(O)cc12 (centres unmarked) [Compound E6, 3-(2-(4-(4-(4-((5-Hydroxy-2-(4-hydroxyphenyl)-3-methyl-1H-indol-1-yl)methyl)-phenoxy)butyl)piperazin-1-yl)-4-oxo-4,6-dihydro-5H-thieno[2,3-c]pyrrol-5-yl)piperidine-2,6-dione] | D (a percentage degradation value of less than 10%) | D (a percentage degradation value of less than 10%) | D (a percentage degradation value of less than 10%)
5 | 107 | O=C1CCC(c2ccc(OCC(=O)N3CCN(CCCCOc4ccc([C@H]5c6ccc(O)cc6CC[C@H]5c5ccccc5)cc4)CC3)cc2)C(=O)N1 (stereo partly drawn) [Compound B44, 3-(4-(2-(4-(4-(4-((1S,2R)-6-Hydroxy-2-phenyl-1,2,3,4-tetrahydronaphthalen-1-yl)phenoxy)butyl)piperazin-1-yl)-2-oxoethoxy)phenyl)piperidine-2,6-dione] | B (a percentage degradation value of less than 50% and no less than 25%) | C (a percentage degradation value of less than 25% and no less than 10%) | C (a percentage degradation value of less than 25% and no less than 10%)
6 | 0.28 | O=C1CCC(N2Cc3c(csc3C3CCN(CCCCCCOc4ccc([C@@H]5c6ccc(O)cc6CC[C@@H]5c5ccccc5)cc4)CC3)C2=O)C(=O)N1 (stereo partly drawn) [Compound A18, 3-(1-(1-(6-(4-((1R,2S)-6-Hydroxy-2-phenyl-1,2,3,4-tetrahydronaphthalen-1-yl)-phenoxy)hexyl)piperidin-4-yl)-4-oxo-4H-thieno[3,4-c]pyrrol-5(6H)-yl)piperidine-2,6-dione] | – | – | –
7 | 0.8 | Cc1c(-c2ccc(O)cc2)n(Cc2ccc(N3CCC(CN4CCN(c5ccc6c(C7CCC(=O)NC7=O)nn(C)c6c5)CC4)CC3)cc2)c2ccc(O)cc12 (centres unmarked) [Compound E17, 3-(6-(4-((1-(4-((5-Hydroxy-2-(4-hydroxyphenyl)-3-methyl-1H-indol-1-yl)-methyl)phenyl)piperidin-4-yl)methyl)piperazin-1-yl)-1-methyl-1H-indazol-3-yl)piperidine-2,6-dione] | – | – | –
8 | – | CC1(Cc2ccc(OCCCCN3CCN(c4ccc5c(c4)CN(C4CCC(=O)NC4=O)C5=O)CC3)cc2)C(c2ccc(O)cc2)=Nc2ccc(O)cc21 (centres unmarked) [Compound D2, 3-(5-(4-(4-(4-((5-Hydroxy-2-(4-hydroxyphenyl)-3-methyl-3H-indol-3-yl)-methyl)phenoxy)butyl)piperazin-1-yl)-1-oxoisoindolin-2-yl)piperidine-2,6-dione] | D (a percentage degradation value of less than 10%) | D (a percentage degradation value of less than 10%) | D (a percentage degradation value of less than 10%)
9 | 0.27 | Cc1c(-c2ccc(O)cc2)n(Cc2ccc(N3CCC(CN4CCN(C(=O)COc5ccc6c(C7CCC(=O)NC7=O)nn(C)c6c5)CC4)CC3)cc2)c2ccc(O)cc12 (centres unmarked) [Compound E15, 3-(6-(2-(4-((1-(4-((5-hydroxy-2-(4-hydroxyphenyl)-3-methyl-1H-indol-1-yl)-methyl)phenyl)piperidin-4-yl)methyl)piperazin-1-yl)-2-oxoethoxy)-1-methyl-1H-indazol-3-yl)-piperidine-2,6-dione] | – | – | –
10 | – | O=C1CCC(N2Cc3c(cc(F)cc3C3CCN(CCCCOc4ccc([C@H]5c6ccc(O)cc6CC[C@H]5c5ccccc5)cc4)CC3)C2=O)C(=O)N1 (stereo partly drawn) [Compound A12, 3-(6-Fluoro-4-(1-(4-(4-((1S,2R)-6-hydroxy-2-phenyl-1,2,3,4-tetrahydro-naphthalen-1-yl)phenoxy)butyl)piperidin-4-yl)-1-oxoisoindolin-2-yl)piperidine-2,6-dione] | C (a percentage degradation value of less than 25% and no less than 10%) | C (a percentage degradation value of less than 25% and no less than 10%) | C (a percentage degradation value of less than 25% and no less than 10%)
11 | 0.36 | Cc1c(-c2ccc(O)cc2)n(Cc2ccc(N3CCC(CCN4CCN(c5ccc6c(C7CCC(=O)NC7=O)nn(C)c6c5)CC4)CC3)cc2)c2ccc(O)cc12 (centres unmarked) [Compound E18, 3-(6-(4-(2-(1-(4-((5-Hydroxy-2-(4-hydroxyphenyl)-3-methyl-1H-indol-1-yl)-methyl)phenyl)piperidin-4-yl)ethyl)piperazin-1-yl)-1-methyl-1H-indazol-3-yl)piperidine-2,6-dione] | – | – | –
12 | – | CC1(Cc2ccc(OCCCCN3CCN(C(=O)COc4ccc(N5CCC(=O)NC5=O)cc4)CC3)cc2)C(c2ccc(O)cc2)=Nc2ccc(O)cc21 (centres unmarked) [Compound D9, 1-(4-(2-(4-(4-(4-((5-Hydroxy-2-(4-hydroxyphenyl)-3-methyl-3H-indol-3-yl)-methyl)phenoxy)butyl)piperazin-1-yl)-2-oxoethoxy)phenyl)dihydropyrimidine-2,4(1H,3H)-dione] | D (a percentage degradation value of less than 10%) | D (a percentage degradation value of less than 10%) | D (a percentage degradation value of less than 10%)
13 | 0.13 | Cn1nc([C@H]2CCC(=O)NC2=O)c2ccc(OCC(=O)N3CCN(CCCCOc4ccc([C@@H]5c6ccc(O)cc6CC[C@@H]5c5ccccc5)cc4)CC3)cc21 [Compound B26, (R)-3-(6-(2-(4-(4-(4-((1R,2S)-6-Hydroxy-2-phenyl-1,2,3,4-tetrahydronaphthalen-1-yl)phenoxy)butyl)piperazin-1-yl)-2-oxoethoxy)-1-methyl-1H-indazol-3-yl)piperidine-2,6-dione] | – | – | –
